US20180284095A1, “BIOMARKERS ASSOCIATED WITH LSD1 INHIBITORS AND USES THEREOF” (Oryzon Genomics, S.A., priority 2015, published 2018)

What was measured:
[1] = molecular target: T1, Human recombinant monoamine oxidase MAO-B (Homo sapiens, UniProt P27338); experiment: MAO-B fluorescence-based kynuramine assay; assay type: biochemical
T1 construct: purchased Sigma Aldrich
T1 sequence (P27338 1-520): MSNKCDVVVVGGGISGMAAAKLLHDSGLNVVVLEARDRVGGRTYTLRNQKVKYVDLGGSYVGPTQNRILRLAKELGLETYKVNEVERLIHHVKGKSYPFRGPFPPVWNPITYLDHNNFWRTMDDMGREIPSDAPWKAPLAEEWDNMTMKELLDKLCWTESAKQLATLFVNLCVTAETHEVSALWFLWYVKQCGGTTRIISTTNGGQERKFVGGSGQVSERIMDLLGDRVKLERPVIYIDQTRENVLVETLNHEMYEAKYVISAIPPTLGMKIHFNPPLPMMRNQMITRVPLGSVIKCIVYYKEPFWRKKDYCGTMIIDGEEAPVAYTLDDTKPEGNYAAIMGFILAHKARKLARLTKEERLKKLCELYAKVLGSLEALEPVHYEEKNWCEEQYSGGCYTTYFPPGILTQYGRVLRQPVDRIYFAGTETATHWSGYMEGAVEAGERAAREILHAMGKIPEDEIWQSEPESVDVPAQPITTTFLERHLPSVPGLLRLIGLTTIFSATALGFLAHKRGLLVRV
Source text: MAOs catalyze the oxidative deamination of primary, secondary and tertiary amines. In order to monitor MAO enzymatic activities and/or their inhibition rate by inhibitor(s) of interest, a fluorescence-based (inhibitor)-screening assay was set up. 3-(2-Aminophenyl)-3-oxopropanamine (kynuramine dihydrobromide, Sigma Aldrich), a non fluorescent compound was chosen as a substrate. Kynuramine is a non-specific substrate for both MAO-A and MAO-B activities. While undergoing oxidative deamination by MAO activities, kynuramine is converted into 4-hydroxyquinoline (4-HQ), a resulting fluorescent product.
The monoamine oxidase activity was estimated by measuring the conversion of kynuramine into 4-hydroxyquinoline. Assays were conducted in 96-well black plates with clear bottom (Corning) in a final volume of 100 μL. […]
After leaving the enzyme(s) interacting with the inhibitor, KM of kynuramine was added to each reaction for MAO-B and MAO-A assay respectively, and the reaction was left for 1 hour at 37° C. in the dark. […] The conversion of kynuramine to 4-hydroxyquinoline, was monitored by fluorescence (excitation at 320 nm, emission at 360 nm) using a microplate reader (Infinite 200, Tecan). Arbitrary units were used to measure levels of fluorescence produced in the absence and/or in the presence of inhibitor.
The IC50 values of each inhibitor were calculated with GraphPad Prism Software.

S100A8 = experiment: Microarray gene expression, brain of Hsd:ICR (CD1) mice, MTD study (Example 6); assay type: in vivo, mouse; conditions: brain day 5, male CD1 mice pool
Experimental: (§1) Total RNA was extracted from samples using the RNeasy extraction kit (Qiagen). The quality and concentration of the RNA was analyzed using the Agilent 2100 bioanalyzer and NanoDrop™ ND-1000 (Thermo Scientific). Samples with RNA integrity number (RIN)<6.0 were discarded. Total RNA (0.5 μg) amplification and labelling with Cy3 or Cy5 was carried out using the Eberwein mRNA amplification procedure (Van Gelder et al, Proc Natl Acad Sci USA 1990, 87:1663-1667) employing the MessageAmp™ aRNA amplification kit from Ambion (Applied Biosystems) following the manufacturer's instructions with minor modifications. As hybridization controls, plant mRNAs were transcribed from a plasmid containing the Zea mays Xet (xyloglucan endo-transglycosylase) cDNA and from a plasmid containing the Zea mays Zmmyb42 cDNA, independently prepared Cy3 and Cy5 labelled aRNA from these two RNAs using the Eberwein mRNA amplification procedure (as disclosed in Cerdà et al, Gen Comp Endocrinol 2008, 156:470-481).
(§2) The Cy3- and Cy5-labelled cRNAs and spikes were combined and hybridized to the microarray described in Example 2.6 for 17 h at 60° C. using Agilent's gaskets G2534-60002, G2534A hybridization chambers and DNA Hybridization Oven G2545A, according to the manufacturer's instructions. More specifically, equal amounts of Cy3 and Cy5 labeled Xet aRNA as well as equal amounts of Cy3 and Cy5 labeled Zmmyb42 aRNA were spiked into each mixture hybridized to the array. Arrays were washed and raw data were obtained using Agilent's DNA Microarray Scanner G2505B and Feature Extraction software (v10.1). The raw fluorescence intensity data were processed using applicant's proprietary software, and consists in the following operations:
(§3) Data normalization was carried out by an improved version of the nonlinear Q-splines normalization method (Workman et al., Genome Biol 2002, 3(9):research0048.1-0048.16). Normalization results were presented graphically as MA plots, as first described by Dudoit et al (Dudoit et al, Statistica Sinica, 2002, 12:111-139). Each point corresponds to a probe of the DNA array. M values (vertical axis) are the log-differential expression ratios. A values (horizontal axis) are the log-intensities of the spots. M and A are calculated from the Cy5 and Cy3 intensity values as of each spot. The DNA Array data is normalized using an improved version of non-linear Q-Splines normalization described by Workman et al., Genome Biol 2002, 3(9):research0048.1-0048.16. This process is useful to correct the deviation of the M values from the statistical assumption that most of the spots have M=0 in MA plots. […]. The data used to calculate the normalization fitting curve is the totality of the raw measurement dataset, excluding the signals for the probes for the spiked-in plant RNA controls and negative controls. In order to be able to normalize properly the data among all the experiments, the probe-set must include an important group of genes that should have no change (M=0) in the experiment. The normalization function is then applied to all the data, including controls.
(§4) Normalized and log-transformed data were used to calculate log 2 (sample/control) and Fold Change (FC) values. No background subtraction was applied to the signal intensity values during data processing, permitting robust selection of differentially expressed genes with low expression levels at the cost of potential sub-estimation of change when intensity levels are close to the array background level.
(§5) Male Hsd:ICR (CD1®) mice were maintained in air- and temperature-controlled cages with regular supply of water and food. A maximum of 3 mice were raised per cage. Three mice were assigned to each group. Before the first administration, each mouse was labeled and weighed. Test compounds were administered orally using 1 ml syringes using animal feeding needles proper for mice at 10 ml/kg as follows. […]

S100A9 = experiment: as above; assay type: in vivo, mouse; conditions: brain day 5, male CD1 mice pool
Experimental: as §1, §2, §3, §4, §5

[2] = 3 mg/kg oral x5 days vs vehicle
[3] = 10 mg/kg oral x5 days vs vehicle
[4] = 30 mg/kg oral x5 days vs vehicle
[5] = 100 mg/kg oral x5 days vs vehicle

Row | Molecule | IC50 [1] [µM] | Hybridization signal sample_Cy5 S100A8 (S100A8; 3 mg/kg oral x5 days) | log2 (sample/control) S100A8 (S100A8; [2]) | Hybridization signal sample_Cy5 S100A8 (S100A8; 10 mg/kg oral x5 days) | log2 (sample/control) S100A8 (S100A8; [3]) | Hybridization signal sample_Cy5 S100A8 (S100A8; 30 mg/kg oral x5 days) | log2 (sample/control) S100A8 (S100A8; [4]) | Hybridization signal sample_Cy5 S100A8 (S100A8; 100 mg/kg oral x5 days) | log2 (sample/control) S100A8 (S100A8; [5]) | Hybridization signal sample_Cy5 S100A9 (S100A9; 3 mg/kg oral x5 days) | log2 (sample/control) S100A9 (S100A9; [2]) | Hybridization signal sample_Cy5 S100A9 (S100A9; 10 mg/kg oral x5 days) | log2 (sample/control) S100A9 (S100A9; [3]) | Hybridization signal sample_Cy5 S100A9 (S100A9; 30 mg/kg oral x5 days) | log2 (sample/control) S100A9 (S100A9; [4]) | Hybridization signal sample_Cy5 S100A9 (S100A9; 100 mg/kg oral x5 days) | log2 (sample/control) S100A9 (S100A9; [5])
1 | NC(=O)CN[C@H]1C[C@@H]1c1ccc(OCc2ccccc2)cc1 (racemic) [Compound 3, 2-(((trans)-2-(4-(benzyloxy)phenyl)cyclopropyl)amino)acetamide] | 0.07 | – | – | – | – | – | – | – | – | – | – | – | – | – | – | – | –
2 | N[C@H]1CCN(CCN[C@H]2C[C@@H]2c2ccc(-c3cccc(C(F)(F)F)c3)cc2)C1 (racemic) [Compound 5, (S)-1-(2-(((trans)-2-(3′-(trifluoromethyl)-[1,1′-biphenyl]-4-yl)cyclopropyl)amino)ethyl)pyrrolidin-3-amine] | 5.1 | – | – | – | – | – | – | – | – | – | – | – | – | – | – | – | –
3 | (+) 5-((((trans)-2-(4-(benzyloxy)phenyl)cyclopropyl)amino)methyl)-1,3,4-oxadiazol-2-amine [Compound 2] | – | 126.363 | −0.1015 | 69.9912 | −1.156 | 80.188 | −1.029 | 39.3591 | −1.921 | 291.855 | −0.2512 | 117.175 | −1.515 | 149.542 | −1.285 | 45.3442 | −2.876
4 | (−) 5-((((trans)-2-(4-(benzyloxy)phenyl)cyclopropyl)amino)methyl)-1,3,4-oxadiazol-2-amine [Compound 1] | – | 55.2994 | −1.452 | 39.6385 | −1.81 | 40.5977 | −1.859 | 40.4596 | −1.786 | 97.9225 | −1.935 | 46.2723 | −2.962 | 45.4319 | −2.9408 | 56.7063 | −2.792
